Article PMC6378327, “Modes of Accessing Bicarbonate for the Regulation of Membrane Guanylate Cyclase (ROS-GC) in Retinal Rods and Cones” (eNeuro, 2019)

Biological target: T1, ROS-GC1 (Bos taurus, UniProt P55203)
T1 construct: gene GUCY2D; core catalytic domain, G817-Y965 (numbering for mature protein), homodimer
Experiment: activation of purified recombinant core catalytic domain by […] bicarbonate, cGMP radioimmunoassay
Format: biochemical
Conditions: 30000 µM

T1 sequence (P55203 873-1021): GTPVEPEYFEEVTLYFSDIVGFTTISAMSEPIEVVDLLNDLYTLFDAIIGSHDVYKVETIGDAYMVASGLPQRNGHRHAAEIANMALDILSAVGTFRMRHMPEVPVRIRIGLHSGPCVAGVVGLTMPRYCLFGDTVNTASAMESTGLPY

O=C(O)O [bicarbonate]
activation of purified recombinant core catalytic domain by 30 mM bicarbonate, c: 3.4 fold activity at 30 mM
